One test relates to microorganisms. Kind of test: Peptides having multiple activities (targeting/binding, antimicrobial, growth or phenotype altering). An excerpt:
In certain embodiments, peptides described herein can have multiple activities. Thus for example, a peptide can have both binding/targeting activity and antimicrobial activity. Such peptides can be used, e.g., in a chimeric construct, for any or all of these properties. Thus, for example, a peptide designated “B” in Table 8 can be used as a targeting peptide. If it is also designated G or M it can also be used for antimicrobial activity.

The test system of test [1] is microorganisms (e.g., bacteria, yeasts, fungi). Description: Targeting peptide binding to target microorganisms (Table 3). To be noted: peptide binding in aqueous buffers varied by peptide solubility; preferably 1x PBS.
For the next test, the system named is F. nucleatum. Description: Kill or inhibit growth/proliferation; morphology, biofilm and growth disruption (Tables 5, 6). Also: test concentration or dose not given here. The arrangement: key: A: Peptide aggregates; B: Less hyphal formation; Clumps; Diffuse clumps and small polyps; F: Diffuse growth; H: Thin; I: Growth inhibition; Microcolony formation; Rippled; Small polyps; Thick; W: Halo formation on top, microlonies on bottom. The test is classed as cell-based, Fusobacterium nucleatum.

Another test deals with S. mutans. The test is described as above. It is filed as cell-based, Streptococcus mutans. On the set-up: key: A: Peptide aggregates; B: Less hyphal formation; Clumps; Diffuse clumps and small polyps; F: Diffuse growth; H: Thin; I: Growth inhibition; Microcolony formation; Rippled; Small polyps; Thick; W: Halo formation on top, microlonies on bottom.

Entries after “also recorded” stand apart in the source; their conditions may differ.
For Organism, effect (morphology, biofilm and growth disruption) in this document: test concentration or dose not given here.

On to “PF-C055: peptide having multiple activities (YNLSIYIYFLHTITIAGLITLPFII; Peptide with targeting and/or antimicrobial activity)”, for which the Activities result with microorganisms is “G B”. For the same substance, the “Target(s) (microorganisms bound by the targeting peptide)” value in test [1] is “A. naeslundii; also recorded: F. nucleatum; also recorded: P. gingivalis; also recorded: S. mutans”. The “Organism, effect (morphology, biofilm and growth disruption)” value in the test on F. nucleatum was “F. nucleatum (T)”; with S. mutans, “S. mutans (I)”.
The corresponding values for “PF-C062: peptide having multiple activities (PLARATEVVATLFIICSLLLYLTR; Peptide with targeting and/or antimicrobial activity)” are “G B”, “A. naeslundii; also recorded: F. nucleatum; also recorded: P. gingivalis; also recorded: S. mutans; also recorded: T. denticola”, “F. nucleatum (T)” and “S. mutans (I)”.
Regarding “PF-C120: peptide having multiple activities (ASLSTMTFKVMELKELIILLCGLTMLMIQTEFV; Peptide with targeting and/or antimicrobial activity)”, the Activities result in the test with microorganisms was “G B”. Also, the “Target(s) (microorganisms bound by the targeting peptide)” value in test [1] is given as “A. naeslundii; also recorded: F. nucleatum; also recorded: P. gingivalis; also recorded: S. mutans; also recorded: T. denticola”. In the test on F. nucleatum, the “Organism, effect (morphology, biofilm and growth disruption)” value is on record as “F. nucleatum (T)”.
In the case of “PF-C131: peptide having multiple activities (QWIVAKREIRMHIYCHISVIHVIIFFG; Peptide with targeting and/or antimicrobial activity)”, the Activities result with microorganisms is given as “G B”. Besides, the “Target(s) (microorganisms bound by the targeting peptide)” value in test [1] is recorded as “A. naeslundii; also recorded: F. nucleatum; also recorded: P. gingivalis; also recorded: S. mutans”. Besides, the “Organism, effect (morphology, biofilm and growth disruption)” value was “F. nucleatum (T)” with F. nucleatum and “S. mutans (F)” in the test with S. mutans.
For the substance “PF-C137: peptide having multiple activities (QRMYWFKRGFETGDFSAGDTFAELK; Peptide with targeting and/or antimicrobial activity)”, the Activities entry with microorganisms is listed as “G B”. Also, in test [1], the “Target(s) (microorganisms bound by the targeting peptide)” value was “A. naeslundii; also recorded: F. nucleatum; also recorded: P. gingivalis; also recorded: S. mutans”. For the same substance, in the test with F. nucleatum, the “Organism, effect (morphology, biofilm and growth disruption)” value was “F. nucleatum (T)”.
As to “PF-C143: peptide having multiple activities (VVFGGGDRLV; Peptide with targeting and/or antimicrobial activity)”, the Activities result in the test on microorganisms is “G B”. Moreover, the “Target(s) (microorganisms bound by the targeting peptide)” value in test [1] was “A. naeslundii; also recorded: F. nucleatum; also recorded: P. gingivalis; also recorded: S. mutans; also recorded: T. denticola”. Moreover, the “Organism, effect (morphology, biofilm and growth disruption)” value with F. nucleatum is on record as “F. nucleatum (C)”.
In the case of “PF-C145: peptide having multiple activities (YGKESDP; Peptide with targeting and/or antimicrobial activity)”, the Activities result with microorganisms was “G B”. Moreover, in test [1], the “Target(s) (microorganisms bound by the targeting peptide)” value is given as “A. naeslundii; also recorded: F. nucleatum; also recorded: P. gingivalis; also recorded: S. mutans; also recorded: T. denticola”. The figures for the “Organism, effect (morphology, biofilm and growth disruption)” value with F. nucleatum and in the test on S. mutans were “F. nucleatum (C)” and “S. mutans (I)”, respectively.
For the substance “PF-C181: peptide having multiple activities (KMRAGQVVFIYKLILVLLFYVLQKLFDLKKGCF; Peptide with targeting and/or antimicrobial activity)”, in the test on microorganisms, the Activities result is listed as “G B”. Moreover, the “Target(s) (microorganisms bound by the targeting peptide)” value in test [1] is given as “P. gingivalis”. In the test on F. nucleatum, the “Organism, effect (morphology, biofilm and growth disruption)” value is given as “F. nucleatum (T)”.

The values above are taken from patent US20110039762A1, “TARGETED ANTIMICROBIAL MOIETIES” (C3 JIAN, INC., priority 2009, published 2011).
